Among the data in patent publication US20250163104A1, “MACROCYCLIC IMMUNOMODULATORS” (priority 2021, published 2025) are IC50 values, retold here.

*1 amine or outer side, *2 acyl side, *3 side chain or, on linkers, in order; H or OH if unused. Where a SMILES comes first, the peptide text is derived from it. Bridges are numbered along the chain shown (N, C = ends). [ ]: non-standard residue; d: D form. The star is where a group is joined. ξ: configuration not given here. X10 = CCc1ccccc1-c1ccc(C[C@H](N[*:1])C(=O)[*:2])cc1; Phe(3-CF3) = N[C@@H](Cc1cccc(C(F)(F)F)c1)C(=O)O; Ala(morpholin-4-yl) = N[C@@H](CN1CCOCC1)C(=O)O; Phe(4-COOH) = N[C@@H](Cc1ccc(C(=O)O)cc1)C(=O)O; Bip = N[C@@H](Cc1ccc(-c2ccccc2)cc1)C(=O)O; Phe(3-Me) = Cc1cccc(C[C@H](N)C(=O)O)c1; Val(3-OH) = CC(C)(O)[C@H](N)C(=O)O; Ala(cPr) = N[C@@H](CC1CC1)C(=O)O; 2Thi = N[C@@H](Cc1cccs1)C(=O)O; Cha = N[C@@H](CC1CCCCC1)C(=O)O; Cit = NC(=O)NCCC[C@H](N)C(=O)O; Ile(3ξ) = CCC(C)[C@H](N)C(=O)O; Thr(3ξ) = CC(O)[C@H](N)C(=O)O; Carboxymethyl = O=C(O)C*; Nle = CCCC[C@H](N)C(=O)O; Orn = NCCC[C@H](N)C(=O)O; Pra = C#CC[C@H](N)C(=O)O; Dab = NCC[C@H](N)C(=O)O; Dap = NC[C@H](N)C(=O)O; CF3 = FC(F)(F)*

The target in the test is T1, human PD-1 / PD-L1-Ig binding on Jurkat cell line over-expressing human PD-1 (Jurkat-PD-1) (Homo sapiens, UniProt Q15116).
T1 construct: expressed in transfected cells; host or cells: Jurkat
T1 sequence (Q15116 25-288): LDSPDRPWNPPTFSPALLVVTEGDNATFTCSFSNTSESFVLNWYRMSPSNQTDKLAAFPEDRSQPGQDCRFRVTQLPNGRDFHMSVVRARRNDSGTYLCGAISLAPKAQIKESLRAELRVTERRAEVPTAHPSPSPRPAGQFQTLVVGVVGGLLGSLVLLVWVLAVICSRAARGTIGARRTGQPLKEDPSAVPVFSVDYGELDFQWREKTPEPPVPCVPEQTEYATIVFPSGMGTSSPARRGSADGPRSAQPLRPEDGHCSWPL
The experiment in a line: Jurkat-PD-1 Cell Binding High-Content Screening Assay (CBA). Format: cell-based. Particulars: Jurkat-PD-1 cells, PE-labeled PD-L1-Ig 20 nM final; read-out: Jurkat HPD1_PDL1 IC50. An outline of the steps:
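Compounds were preincubated with Jurkat-hPD-1 cells in DMEM plus 10% fetal calf serum for 2 h at 37° C. Phycoerythrin-labeled PD-L1-Ig (20 nM final) was then added for 1 hour. Cells were fixed in 4% paraformaldehyde with Hoechst 33342, and bound fluorescence was quantified by high-content imaging.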

As a reminder, the IC50 is the concentration needed to halve the response being measured. As to `CC(C)C[C@H]1NC(=O)[C@H](CCCN)NC(=O)[C@H](CCCNC(N)=O)NC(=O)[C@H](Cc2ccc(-c3ccccc3)cc2)NC(=O)[C@H](CC2CC2)NC(=O)[C@H](Cc2c[nH]c3ccccc23)NC(=O)[C@H](CC(=O)O)NC(=O)[C@H](Cc2ccc(OCC(=O)O)cc2)NC(=O)[C@H](CN)NC(=O)CSC[C@@H](C(=O)N[C@@H](C)C(N)=O)NC(=O)[C@H]([C@@H](C)O)NC(=O)[C@H](C(C)C)NC(=O)[C@H](CC2CCCCC2)NC(=O)[C@H](CCN)NC1=O` [Compound 1354] ({CH2CO}-[Dap]Y(Carboxymethyl)DW[Ala(cPr)][Bip][Cit][Orn][dL][Dab][Cha]VTCA-NH2; thioether N-14), the IC50 worked out at 13.9 nM.
For the compound `Cc1cccc(C[C@@H]2NC(=O)[C@H](CC(=O)O)NC(=O)[C@H](Cc3ccc(C(=O)O)cc3)NC(=O)[C@H](C(C)O)NC(=O)CSC[C@@H](C(=O)N[C@@H](CCN)C(N)=O)NC(=O)[C@H](Cc3cnc[nH]3)NC(=O)[C@H](C(C)(C)O)NC(=O)[C@H](CC3CCCCC3)NC(=O)[C@H](CCN)NC(=O)[C@@H](CC(C)C)NC(=O)[C@H](CCCN)NC(=O)[C@H](Cc3ccc(OCC(=O)O)cc3)NC(=O)[C@H](Cc3ccc(-c4ccccc4)cc3)NC(=O)[C@H](Cc3ccc(OCC(=O)O)cc3)NC2=O)c1` (stereo partly drawn) [Compound 2683] ({CH2CO}-[Thr(3ξ)][Phe(4-COOH)]D[Phe(3-Me)]Y(Carboxymethyl)[Bip]Y(Carboxymethyl)[Orn][dL][Dab][Cha][Val(3-OH)]HC[Dab]-NH2; thioether N-14), the IC50 came out at 1.9 nM.
For `CC(C)C[C@H]1NC(=O)[C@H](CCCN)NC(=O)[C@H](CCC(=O)O)NC(=O)[C@H](Cc2ccc(-c3ccccc3)cc2)NC(=O)[C@H](C(C)C)NC(=O)[C@H](Cc2cccs2)NC(=O)[C@H](CC(=O)O)NC(=O)[C@H](Cc2cccs2)NC(=O)[C@H](Cc2ccccc2)NC(=O)CSC[C@@H](C(=O)N[C@@H](C)C(N)=O)NC(=O)[C@H]([C@@H](C)O)NC(=O)[C@H](C(C)C)NC(=O)[C@H](CC2CCCCC2)NC(=O)[C@H](CCN)NC1=O` [Compound 2204] ({CH2CO}-F[2Thi]D[2Thi]V[Bip]E[Orn][dL][Dab][Cha]VTCA-NH2; thioether N-14) the value was 24.4 nM; for `C#CC[C@H](NC(=O)CNC(=O)[C@@H]1CSCC(=O)N[C@@H](CCN)C(=O)N[C@@H](Cc2ccc(OCC(=O)O)cc2)C(=O)N[C@@H](CC(=O)O)C(=O)N[C@@H](Cc2c[nH]c3ccccc23)C(=O)N[C@@H](C(C)C)C(=O)N[C@@H](Cc2ccc(-c3ccccc3)cc2)C(=O)N[C@@H](C(C)CC)C(=O)N[C@@H](CCCN)C(=O)N[C@H](CC(C)C)C(=O)N[C@@H](CCN)C(=O)N[C@@H](CC2CCCCC2)C(=O)N[C@@H](C(C)(C)O)C(=O)N[C@@H](CO)C(=O)N1)C(=O)O` (stereo partly drawn) [Compound 2319] ({CH2CO}-[Dab]Y(Carboxymethyl)DWV[Bip][Ile(3ξ)][Orn][dL][Dab][Cha][Val(3-OH)]SCG[Pra]-OH; thioether N-14), 24.3 nM; for `CC(C)C[C@H]1NC(=O)[C@H](CCCN)NC(=O)[C@H](CCC(=O)O)NC(=O)[C@H](Cc2ccc(-c3ccccc3)cc2)NC(=O)[C@H](C(C)C)NC(=O)[C@H](Cc2c[nH]c3ccccc23)NC(=O)[C@H](CC(=O)O)NC(=O)[C@H](Cc2cccs2)NC(=O)[C@H](CC(N)=O)NC(=O)CSC[C@@H](C(=O)N[C@@H](C)C(N)=O)NC(=O)[C@H]([C@@H](C)O)NC(=O)[C@H](C(C)C)NC(=O)[C@H](CC2CCCCC2)NC(=O)[C@H](CCN)NC1=O` [Compound 2190] ({CH2CO}-N[2Thi]DWV[Bip]E[Orn][dL][Dab][Cha]VTCA-NH2; thioether N-14), 15.3 nM.
Take `Cc1cccc(C[C@@H]2NC(=O)[C@H](CC(=O)O)NC(=O)[C@H](Cc3ccc(OCC(=O)O)cc3)NC(=O)[C@H](CCN)NC(=O)CSC[C@@H](C(=O)N[C@@H](CCN)C(N)=O)NC(=O)[C@H](CCC(=O)O)NC(=O)[C@H](C(C)(C)O)NC(=O)[C@H](CC3CCCCC3)NC(=O)[C@H](CCN)NC(=O)[C@@H](CC(C)C)NC(=O)[C@H](CCCN)NC(=O)[C@H](Cc3ccc(OC(F)(F)F)cc3)NC(=O)[C@H](Cc3ccc(-c4ccccc4)cc3)NC(=O)[C@H](Cc3ccc(OCC(=O)O)cc3)NC2=O)c1` [Compound 2694] ({CH2CO}-[Dab]Y(Carboxymethyl)D[Phe(3-Me)]Y(Carboxymethyl)[Bip]Y(CF3)[Orn][dL][Dab][Cha][Val(3-OH)]EC[Dab]-NH2; thioether N-14): the half-inhibitory concentration (IC50) came out at 16.5 nM.
The figure for `CCCC[C@@H]1NC(=O)[C@H](CCN)NC(=O)[C@@H](CC(C)C)NC(=O)[C@H](CCCN)NC(=O)[C@H](C(C)C)NC(=O)[C@H](Cc2ccc(-c3ccccc3)cc2)NC(=O)[C@H](C(C)C)NC(=O)[C@H](Cc2c[nH]c3ccccc23)NC(=O)[C@H](CC(=O)O)NC(=O)[C@H](Cc2ccc(O)cc2)NC(=O)[C@H](CC(N)=O)NC(=O)CSC[C@@H](C(=O)N[C@@H](C)C(N)=O)NC(=O)[C@H]([C@@H](C)O)NC(=O)[C@H](C(C)C)NC1=O` [Compound 1171] ({CH2CO}-NYDWV[Bip]V[Orn][dL][Dab][Nle]VTCA-NH2; thioether N-14) is 26.4 nM; for `COC[C@@H]1NC(=O)CSC[C@@H](C(=O)N[C@@H](CCN)C(N)=O)NC(=O)[C@H](CO)NC(=O)[C@H](C(C)(C)O)NC(=O)[C@H](CC2CCCCC2)NC(=O)[C@H](CCN)NC(=O)[C@@H](CC(C)C)NC(=O)[C@H](CCCN)NC(=O)[C@H](Cc2ccc(OCC(=O)O)cc2)NC(=O)[C@H](Cc2ccc(-c3ccccc3)cc2)NC(=O)[C@H](Cc2ccc(OCC(=O)O)cc2)NC(=O)[C@H](Cc2cccc(C)c2)NC(=O)[C@H](CC(=O)O)NC(=O)[C@H](Cc2ccc(C(=O)O)cc2)NC1=O` [Compound 2078] ({CH2CO}-S(Me)[Phe(4-COOH)]D[Phe(3-Me)]Y(Carboxymethyl)[Bip]Y(Carboxymethyl)[Orn][dL][Dab][Cha][Val(3-OH)]SC[Dab]-NH2; thioether N-14) it is 4.9 nM.
The figure for `CCc1ccccc1-c1ccc(C[C@@H]2NC(=O)[C@H](Cc3cccc(C(F)(F)F)c3)NC(=O)[C@H](CC(=O)O)NC(=O)[C@H](Cc3ccc(C(=O)O)cc3)NC(=O)[C@H](CN3CCOCC3)NC(=O)CSC[C@@H](C(=O)N[C@@H](CCN)C(N)=O)NC(=O)[C@H](CCC(=O)O)NC(=O)[C@H](C(C)C)NC(=O)[C@H](CC3CCCCC3)NC(=O)[C@H](CCN)NC(=O)[C@@H](CC(C)C)NC(=O)[C@H](CCCN)NC(=O)[C@H](Cc3ccc(C(=O)O)cc3)NC(=O)[C@H](Cc3ccc(-c4ccccc4)cc3)NC2=O)cc1` [Example 2734] ({CH2CO}-[Ala(morpholin-4-yl)][Phe(4-COOH)]D[Phe(3-CF3)][X10][Bip][Phe(4-COOH)][Orn][dL][Dab][Cha]VEC[Dab]-NH2; thioether N-14) is 5.7 nM.
For the compound `CC(C)C[C@H]1NC(=O)[C@H](CCCN)NC(=O)[C@H](C(C)C)NC(=O)[C@H](Cc2ccc(-c3ccccc3)cc2)NC(=O)[C@H](C(C)C)NC(=O)[C@H](Cc2cccc(C(F)(F)F)c2)NC(=O)[C@H](CC(=O)O)NC(=O)[C@H](Cc2ccc(OCC(=O)O)cc2)NC(=O)[C@H](CN)NC(=O)CSC[C@@H](C(=O)N[C@@H](C)C(N)=O)NC(=O)[C@H]([C@@H](C)O)NC(=O)[C@H](C(C)C)NC(=O)[C@H](CC2CCCCC2)NC(=O)[C@H](CCN)NC1=O` [Compound 1576], the half-inhibitory concentration (IC50) was found to be 30.3 nM.
